Results published in ChEMBL document CHEMBL1777674, “2,6-Disubstituted pyrazines and related analogs as NR2B site antagonists of the NMDA receptor with anti-depressant activity” (Bioorg Med Chem Lett, 2011).
In brackets after ≈: the same amount, converted by molar mass.

Experiments:
[1] = Equilibrium solubility of the compound at pH 7.4; format: physicochemical; conditions: buffer
[2] = Intrinsic clearance in human liver microsomes; format: ADME, Microsome
[3] = Plasma concentration in mouse at 10 mg/kg, ip after 30 mins; format: ADME, organism-based; set-up: dose 10 mg/kg, route intraperitoneal
[4] = Plasma concentration in mouse at 30 mg/kg, ip after 30 mins; format: ADME, organism-based; set-up: dose 30 mg/kg, route intraperitoneal
[5] = Plasma concentration in mouse at 60 mg/kg, ip after 30 mins; format: ADME, organism-based; set-up: dose 60 mg/kg, route intraperitoneal
[6] = Ratio of drug level in brain to plasma in mouse at 10 mg/kg, ip after 30 mins; format: ADME, organism-based; set-up: dose 10 mg/kg, route intraperitoneal; conditions: read-out: BPR
[7] = Ratio of drug level in brain to plasma in mouse at 30 mg/kg, ip after 30 mins; format: ADME, organism-based; set-up: dose 30 mg/kg, route intraperitoneal; conditions: read-out: BPR
[8] = Ratio of drug level in brain to plasma in mouse at 60 mg/kg, ip after 30 mins; format: ADME, organism-based; set-up: dose 60 mg/kg, route intraperitoneal; conditions: read-out: BPR

SMILES | solubility thermodynamic [1] [µM] | microsomal CLint [2] [µL/min/mg] | concentration at 0.5 h [3] [nM] | concentration at 0.5 h [4] [nM] | concentration at 0.5 h [5] [µM] | Kp at 0.5 h [6] | Kp at 0.5 h [7] | Kp at 0.5 h [8]
COc1cc(F)ccc1-c1cncc(CNC(=O)c2cnccn2)c1 | 63 (≈ 21.3 µg/mL) | 64 | – | – | – | – | – | –
C[C@@H]([C@@H](O)c1ccc(O)cc1)N1CCC(O)(c2ccccc2)CC1 [TRAXOPRODIL] | > 470 | 37 | – | – | – | – | – | –
COc1cc(F)ccc1-c1cncc(CNC(=O)c2ccccn2)c1 | – | 45 | – | – | – | – | – | –
COc1cc(F)ccc1-c1cncc(CNCC2CC2)n1 | 340 (≈ 97.7 µg/mL) | 108 | – | – | – | – | – | –
COc1cc(F)ccc1-c1cncc(CNC2CCCC2)c1 | > 450 | 74 | 867 | 2320 | 3.37 | 10.9 | 13.6 | 12.6
